# From patent US12485107B2, “Methods for the prevention or treatment of cytokine storm” (Beth Israel Deaconess Medical Center, Inc., priority 2019, dated 2025)
# Legend:
# [1] = test system: intraperitoneal ovarian tumors (ID8); test: In vivo cytokines (serum, ascites) in mice bearing intraperitoneal ID8 ovarian tumors
# Protocol: In vivo cytokines (serum or ascites) or cytokines in conditioned medium of macrophages treated with PTUPB and exposed to paclitaxel- or carboplatin-generated debris, were assessed according to the protocols provided by Proteome Profiler Mouse Cytokine Array Kit Panel A, Proteome Profiler Mouse Angiogenesis Array Kit, or Proteome Profiler Human Cytokine Array Kit Panel A (R&D Systems, Inc., Minneapolis, MN). Array control allows for comparison between membranes. For in vivo analysis, n=2 mice/group (serum); n=1 mouse/group (ascites).
# For quantitation of pro-inflammatory cytokines, serum or conditioned medium from macrophages treated with PTUPB and stimulated with paclitaxel-generated ID8 debris or from paclitaxel-generated ID8 debris alone without macrophages was used according to the protocols provided in each ELISA kit (R&D Systems, Minneapolis, MN).
# All animal studies were reviewed and approved by the Animal Care and Use Committee of Beth Israel Deaconess Medical Center, Boston, MA Mice were housed at a maximum of 5 animals per cage in a pathogen-free facility with unlimited access to sterile water and chow. Daily welfare evaluations and animal sacrifices were carried out according to the Committee guidelines. For murine injections, chemotherapy-generated murine (ID8) or human (OVCAR5) ovarian tumor cell debris was combined with ID8 or OVCAR5 living cells at equal volumes in PBS. Six-week-old female C57BL/6 (The Jackson Laboratory, Bar Harbor, ME) or SCID mice (Charles River, Cambridge, MA) were injected subcutaneously or intraperitoneally with 100 μL/mouse of ID8 or OVCAR5 cells, respectively. For orthotopic injections, 6-week-old C57BL/6 female mice were injected with 20 μL/mouse of matrigel (Becton Dickinson and Company, Franklin Lakes, NJ) mixed with paclitaxel-generated ID8 debris and/or ID8 living cells at a 1:1 (matrigel:cells) ratio directly into the right ovarian bursa. Systemic treatment with PTUPB (30 mg/kg/day) or control was administered via mini-osmotic pumps (Alzet Inc., Cupertino, CA) implanted into the peritoneum of the mice 4 weeks post-injection. […]
# [2] = test system: RAW264.7 murine macrophages; test: Annexin V/PI cell death analysis of RAW264.7 macrophages; assay type: cell-based; details: 5 μM, 24 hours, vs vehicle
# Protocol: Murine (ID8) or human (OVCAR5) ovarian tumor cells were treated with vehicle or a chemotherapeutic agent (e.g., cisplatin, carboplatin, or paclitaxel) as described. B/CMBA.Ov murine ovarian epithelial cells were treated with vehicle or PTUPB (1 or 5 μM) for 24 hours. The floating population (e.g., dead cells or “debris”) was collected, and the remaining adhered cells were trypsinized and combined with the dead cells. RAW264.7 murine macrophages were treated with vehicle or PTUPB (5 μM) for 24 hours. The floating population was collected and the remaining adhered cells were detached using a cell scraper (Corning Inc., Corning, NY) and combined with the dead cells. Cells were counted via hemocytometer, pelleted, and resuspended in PBS at 1×10^6 cells/mL. Next, 2×10^5 cells were stained with annexin V and propidium iodide (PI) according to FITC Annexin V/Dead Cell Apoptosis Kit protocol (Life Technologies, Carlsbad, CA). Staining was assessed using the BD LSR Fortessa (BD Biosciences, San Jose, CA) at the Dana-Farber Cancer Institute Jimmy Fund Flow Cytometry Core, and analyzed using FlowJo software (Tree Star Inc., Ashland, OR). Experiments were performed three times with similar results.
structure (smiles),measurement,setting,value
"NS(=O)(=O)c1ccc(-n2nc(CCCNC(=O)Nc3ccc(C(F)(F)F)cc3)cc2-c2ccccc2)cc1 [PTUPB, 4-(5-phenyl-3-{3-[3-(4-trifluoromethyl-phenyl)-ureido]propyl}-pyrazol-1-yl) benzenesulfonamide]",serum levels of CXCL13/BCA-1 and SDF-1/CXCL12,"[1]; ID8-bearing mice administered systemic chemotherapy (carboplatin), PTUPB-treated vs control",reduced serum levels
same,"ascites levels of PIGF-2, PTX-3, MMP9, CCL2/MCP-1, fractalkine/CX3CL1, angiopoietin-1","[1]; intraperitoneal ID8 tumors, day 60 post-injection, vs control",decreased levels
same,pro-angiogenic factors serpin E1/PAI-1 and IGFBP1 in serum,"[1]; mice i.p. injected with ID8 (1×10^6 living cells), day 60 post-injection, vs control",inhibited pro-angiogenic factors
same,induction of cell death of RAW264.7 macrophages,[2],did not induce cell death
